Test results published in article PMC6864647, “Synthesis and Antiviral Activity of Novel 1,3,4-Thiadiazole Inhibitors of DDX3X” (Molecules, 2019).
Where two headings read alike, the source gives them in different places.

Legend:
[1] = Cytotoxicity assay in H9 cells (CellTiter-Glo 2.0); assay type: cell-based, human; conditions: human; non-infected H9 cells, 72 h
Description: (§1) Cytotoxicity in H9 cells was determined by using the CellTiter-Glo 2.0 assay (Promega). H9 cells were seeded at 40,000 cells/well in duplicate in the presence of serial two-fold dilutions of compounds (range 200–1.56 μM) and incubated for 72 h. Cell viability was calculated by measuring cellular ATP as a marker of metabolically active cells through a luciferase based chemical reaction and expressed as the concentration that reduce cell viability by 50%.

Water solubility assay = assay type: physicochemical; conditions: 27 °C, thermodynamic from solid, 1 mg in 1 mL water
Description: […] After 24 h of stirring at 27 °C, the mixture was filtered and the quantity of solubilized compound determined by LC-MS-MS. […] By contrast, esters 30 and 31 due to their lipophilicity have values outside the recommended range […].
The appropriate (1 mg) was added to 1 mL of water. The sample was shaken in a shaker bath at room temperature for 24–36 h. The suspensions were filtered through a 0.45 μm nylon filter (Acrodisc, Sigma Aldrich, Milan, Italy) and the solubilized compound determined by LC-MS-MS assay. The determination was performed in triplicate. For the quantification, an LC-MS system consisting of a Varian apparatus (Varian Inc., Palo Alto, CA, USA), including a vacuum solvent degassing unit, two pumps (212-LC), a Triple Quadrupole MSD (Mod. 320-LC) mass spectrometer with ES interface, and Varian MS Workstation System Control Vers. 6.9 software, was used. Chromatographic separation was obtained while using a 3 μm particle size Pursuit C18 column (50 × 2.0 mm) (Varian). Column was equilibrated in Buffer B (aqueous solution of 0.1% formic acid) and eluted with a linear increase from 0% to 70% gradient of Buffer A (ACN) for 10 min. and subsequent increase up to 98% for additional 5 min. The instrument operated in positive mode and the following parameters were used: injection volume 5 μL, flow rate 0.3 mL/min, detector 1850 V, drying gas pressure 25.0 psi, desolvation temperature 300.0 °C, nebulizing gas 45.0 psi, needle 5000 V, and shield 600 V. Nebulizer gas and drying gas was Nitrogen. Argon was the collision gas at a pressure of 1.8 mTorr in the collision cell. Single compound quantification was performed in comparison with standard calibration curves in methanol.

[2] = Parallel Artificial Membrane Permeability Assay (PAMPA); assay type: in vitro ADME; conditions: pH 7.4, 5 h; for Papp at 5 h, 0.5 mM: room temperature, read-out: AppP (apparent permeability)
Description: Finally, we evaluated passive membrane permeability (AppP) while using Parallel Artificial Membrane Permeability Assay (PAMPA). The quantity of compound able to diffuse through a semipermeable artificial membrane was calculated by LC-MS-MS.
Donor solution (0.5 mM) was prepared by diluting 1 mM dimethylsulfoxide (DMSO) compound stock solution while using phosphate buffer (pH 7.4, 0.025 M). Filters were coated with 5 μL of a 1% (w/v) dodecane solution of phosphatidylcholine for intestinal permeability. Donor solution (150 μL) was added to each well of the filter plate. To each well of the acceptor plate was added 300 μL of solution (50% DMSO in phosphate buffer). All of the compounds were tested in three different plates on different days. The sandwich was incubated for 5 h at room temperature under gentle shaking. After the incubation time, the plates were separated, and samples were taken from both receiver and donor sides and analyzed while using LC with UV detection at 280 nm. LC analysis was performed with a PerkinElmer (series 200) instrument that was equipped with an UV detector (PerkinElmer 785A, UV/vis Detector). Chromatographic separation was conducted using a Polaris C18 column (150–4.6 mm, 5 μm particle size) at a flow rate of 0.8 mL min^−1 with a mobile phase composed of 60% ACN/40% H2O-formic acid 0.1% for all compounds. Permeability (Papp) was calculated according to the following equation with some modification to obtain permeability values in cm/s, (1) Papp=VDVA/(VD+VA)At−ln(1−r) where VA is the volume in the acceptor well, VD is the volume in the donor well (cm^3), A is the “effective area” of the membrane (cm^2), t is the incubation time (s), and r the ratio between drug concentration in the acceptor and equilibrium concentration of the drug in the total volume(VD + VA).
Drug concentration is estimated by using the peak area integration. Membrane retentions (%) were calculated according to the following equation:(2) %MR=[r−(D+A)]100/Eq where r is the ratio between drug concentration in the acceptor and equilibrium concentration, D, A, and Eq represented drug concentration in the donor, acceptor, and equilibrium solution, respectively.

DDX3X ATPase = molecular target: T1, DDX3X ATPase (Homo sapiens, UniProt O00571); assay: DDX3X ATPase assay (ADP-Glo); assay type: biochemical; conditions: recombinant human DDX3X, 50 μM ATP, mean ± SD of three experiments; for Ki: read-out: DDX3X ATPase Ki (apparent dissociation constant for inhibitor binding)
T1 construct: Recombinant his-tagged human full length DDX3X was cloned into the E. coli expression vector pET-30a(+); His tag; made in house; host or cells: Shuffle T7 E. coli
T1 sequence (O00571 whole entry): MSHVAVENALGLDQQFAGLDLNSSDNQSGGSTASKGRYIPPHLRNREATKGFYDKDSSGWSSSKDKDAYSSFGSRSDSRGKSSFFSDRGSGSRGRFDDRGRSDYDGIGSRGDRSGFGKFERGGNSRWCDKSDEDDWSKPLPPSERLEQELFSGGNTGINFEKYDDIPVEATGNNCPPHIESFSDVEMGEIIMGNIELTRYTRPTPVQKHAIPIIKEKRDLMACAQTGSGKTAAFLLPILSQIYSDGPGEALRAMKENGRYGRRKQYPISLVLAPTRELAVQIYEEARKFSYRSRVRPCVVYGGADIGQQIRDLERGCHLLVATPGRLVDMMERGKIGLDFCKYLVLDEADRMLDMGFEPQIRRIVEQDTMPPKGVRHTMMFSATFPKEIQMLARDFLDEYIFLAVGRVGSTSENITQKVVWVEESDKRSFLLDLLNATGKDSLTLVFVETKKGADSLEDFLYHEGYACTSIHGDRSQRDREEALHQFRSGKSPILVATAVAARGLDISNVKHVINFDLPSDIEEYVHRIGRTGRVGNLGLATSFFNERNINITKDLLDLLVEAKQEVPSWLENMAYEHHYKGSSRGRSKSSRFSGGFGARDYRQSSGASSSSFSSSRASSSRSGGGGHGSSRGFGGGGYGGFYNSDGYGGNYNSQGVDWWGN
Description: Recombinant his-tagged human full length DDX3X was cloned into the E. coli expression vector pET-30a(+). Shuffle T7 E. coli cells were transformed with the plasmid and grown at 37 °C up to OD600 = 0.7. DDX3X expression was induced with 0.5 mM IPTG at 15 °C O/N. The cells were harvested by centrifugation, lysed, and the crude extract centrifuged at 100.000xg for 60 min. at 4 °C in a Beckman centrifuge before being loaded onto a FPLC Ni-NTA column (GE Healthcare). Column was equilibrated in Buffer A (50 mM Tris-HCl pH 8.0, 250 mM NaCl, 25 mM Imidazole, and 20% glycerol). After extensive washing in Buffer A, the column was eluted with a linear gradient in Buffer A from 25 mM to 250 mM Imidazole. Proteins in the eluted fractions were visualized on SDS-PAGE and then tested for the presence of DDX3X by Western blot with anti-DDX3X A300-475A(BETHYL) at 1:2000 dilution in 5% milk. Fractions containing the purest DDX3X protein were pooled and stored at −80 °C.
The ATPase assay was carried out by using the commercial kit Promega (Milan, Italy), ADP-Glo^TM Kinase Assay. Reaction was performed in 30 mM TrisHCl pH 8, 9 mM MgCl2, 0.05 mg/mL BSA, 50 μM ATP, and 4 μM of recombinant DDX3X. Reaction was performed following the ADP-Glo^TM Kinase Assay Protocol and luminescence was measured with MicroBeta TriLux (Perkin Elmer, Milan, Italy).

HIV-1 (NL4-3) = assay: Antiviral BiCycle assay, HIV-1 NL4-3 in H9 cells with TZM-bl readout; assay type: cell-based; conditions: 72 h, then TZM-bl reporter cells 48 h
Description: The antiviral activity was evaluated by measuring the half maximal inhibitory concentration (IC50) values against the HIV-1 wild-type reference strain NL4-3 in a TZM-bl cell line based phenotypic assay, named BiCycle Assay. The method includes a first round of infection of human T cell lymphoma derived clone H9 at multiplicity of infection of 0.03 in the presence of serial dilution of compounds in a 96-well plate. After 72 h, 50 microliters of supernatants from each well were used to infect the TZM-bl cell line, which allow the quantitative analysis of HIV infection by measuring the expression of the luciferase gene integrated in the genome of the cells under the control of HIV-1 LTR promoter.
After 48 h, dose-response curves were generated by measuring reporter gene expression in each well by using the Bright-Glo Luciferase Assay (Promega) through the GloMax Discovery reader (Promega). Relative luminescence units measured in each well were elaborated with the GraphPad Software v.6.0 to calculate IC50 values. All the viruses and cell lines were obtained through the NIH AIDS Reagent Program (www.aidsreagent.org).

DDX3X = molecular target: DDX3X; set-up: method as in PMID 21698775; conditions: cited from earlier work
H9 cells = assay: Cytotoxicity assay in H9 cells (CellTiter-Glo 2.0); assay type: cell-based, human; conditions: CC50 in H9 cells versus anti-HIV-1 IC50
Description: as §1

HIV-1 = system: HIV-1; set-up: method as in PMID 18834110; conditions: MT4 cells; read-out: EC50, inhibition of HIV-1 replication; cited from earlier work
[3] = read-out: AqS (aqueous solubility)
[4] = read-out: AqS as Log of molar concentration (LogS) (converted)
[5] = Human immunodeficiency virus 1, NL43, H9 cells

SMILES | CC50 at 72 h [1] | solubility at 24 h (Water solubility assay; [3]) | solubility at 24 h (Water solubility assay; [4]) | Percentage in parentheses beside AppP (membrane retention) [2] | Papp at 5 h, 0.5 mM [2] | Ki (DDX3X ATPase) | IC50 (HIV-1 (NL4-3); [5]) | other results
COc1ccc(-c2nnc(NC(=O)c3ccccc3C(=O)O)s2)cc1 [Compound 23, 2-((5-(4-Methoxyphenyl)-1,3,4-thiadiazol-2-yl)carbamoyl)benzoic acid] | > 200 µM | 3.3 µg/mL | 9.33 µM | 0% | < 0.1 ×10⁻⁶ cm/s | 1.3 ± 0.2 µM | > 50 µM | HIV-1 (NL4-3) IC50 (HIV-1 (NL4-3); H9 cells): inactive
O=C1/C(=C/c2c(NCCCO)nc3ccccn3c2=O)SC(=S)N1CCc1ccccc1 [FE109] | – | – | – | – | – | – | – | Ki (DDX3X): 0.2 µM
O=C(O)c1ccccc1C(=O)Nc1nnc(-c2ccccc2Br)s1 [Compound 25, 2-((5-(2-Bromophenyl)-1,3,4-thiadiazol-2-yl)carbamoyl)benzoic acid] | – | – | – | – | – | – | – | DDX3X ATPase Ki (apparent dissociation constant for inhibitor binding) (DDX3X ATPase): abolished
COC(=O)c1ccccc1C(=O)Nc1nnc(-c2ccc(OC)cc2)s1 [Compound 29, Methyl 2-((5-(4-methoxyphenyl)-1,3,4-thiadiazol-2-yl)carbamoyl)benzoate] | 45 µM | 0.5 µg/mL | 1.35 µM | 36% | 0.7 ×10⁻⁶ cm/s | 15.6 µM | – | –
CCCCOC(=O)c1ccccc1C(=O)Nc1nnc(-c2ccc(OC)cc2)s1 [Compound 31, Butyl 2-((5-(4-methoxyphenyl)-1,3,4-thiadiazol-2-yl)carbamoyl)benzoate] | 100 µM | < 0.1 µg/mL | > 1 µM | 25.9% | 6.1 ×10⁻⁶ cm/s | 23.5 ± 2.5 µM | 16 ± 10 µM | –
COC(=O)c1ccccc1C(=O)Nc1nnc(-c2ccccc2[N+](=O)[O-])s1 [Compound 32, Methyl 2-((5-(2-nitrophenyl)-1,3,4-thiadiazol-2-yl)carbamoyl)benzoate] | – | – | – | – | – | – | – | DDX3X ATPase Ki (apparent dissociation constant for inhibitor binding) (DDX3X ATPase): annulled enzymatic inhibition
O=C(O)c1ccccc1C(=O)Nc1nnc(-c2ccccc2[N+](=O)[O-])s1 [Compound 28, 2-((5-(2-Nitrophenyl)-1,3,4-thiadiazol-2-yl)carbamoyl)benzoic acid] | 74 µM | – | – | – | – | 18.3 ± 1.8 µM | 42.3 ± 5.2 µM | SI (selectivity index) (H9 cells): 1.7
Nc1ccccc1-c1nnc(NC(=O)c2ccccc2C(=O)O)s1 [Compound 36, 2-((5-(2-Aminophenyl)-1,3,4-thiadiazol-2-yl)carbamoyl)benzoic acid] | – | – | – | – | – | – | – | DDX3X ATPase Ki (apparent dissociation constant for inhibitor binding) (DDX3X ATPase): total loss of inhibitory capability
O=C(Nc1nnc(-c2ccccc2[N+](=O)[O-])s1)c1ccccc1S(=O)(=O)O [Compound 34, 2-((5-(2-Nitrophenyl)-1,3,4-thiadiazol-2-yl)carbamoyl)benzenesulfonic acid] | 110 µM | – | – | – | – | 35.4 ± 3.5 µM | > 50 µM | –
COc1ccc(-c2nnc(N3C(=O)c4ccccc4C3=O)s2)cc1 [Compound 17, 2-(5-(4-Methoxyphenyl)-1,3,4-thiadiazol-2-yl)isoindoline-1,3-dione] | – | – | – | – | – | > 50 µM | – | DDX3X ATPase Ki (apparent dissociation constant for inhibitor binding) (DDX3X ATPase): completely inactive
CN(C)c1ccc(-c2nnc(NC(=O)c3ccccc3C(=O)O)s2)cc1 [Compound 27, 2-((5-(4-(Dimethylamino)phenyl)-1,3,4-thiadiazol-2-yl)carbamoyl)benzoic acid] | 130 µM | – | – | – | – | 11.9 ± 1.9 µM | > 50 µM | –
O=C(O)c1ccccc1C(=O)Nc1nnc(-c2ccc(O)cc2)s1 [Compound 24, 2-((5-(4-Hydroxyphenyl)-1,3,4-thiadiazol-2-yl)carbamoyl)benzoic acid] | 125 µM | 27.8 µg/mL | 83.2 µM | 0% | < 0.1 ×10⁻⁶ cm/s | 1.9 ± 0.4 µM | 3.9 µM | SI (selectivity index) (H9 cells): 45; IC50 (HIV-1 (NL4-3); H9 cells): 2.8 ± 1.5 µM
O=C(CN1C(=O)/C(=C/c2cccc(Br)c2)SC1=S)Nc1ccccc1O [FE15] | – | – | – | – | – | – | – | EC50 (HIV-1): 86.7 µM
CCOC(=O)c1ccccc1C(=O)Nc1nnc(-c2ccc(OC)cc2)s1 [Compound 30, Ethyl 2-((5-(4-methoxyphenyl)-1,3,4-thiadiazol-2-yl)carbamoyl)benzoate] | > 200 µM | < 0.1 µg/mL | > 1 µM | 4.6% | 2.1 ×10⁻⁶ cm/s | 20.1 ± 2.1 µM | > 50 µM | –
Nc1ccccc1-c1nnc(NC(=O)c2ccccc2S(=O)(=O)O)s1 [Compound 35, 2-((5-(2-Aminophenyl)-1,3,4-thiadiazol-2-yl)carbamoyl)benzenesulfonic acid] | 130 µM | – | – | – | – | 20.1 ± 2.1 µM | > 50 µM | –
